Test results from PubChem BioAssay AID1259407 (Chemical Carcinogenesis Research Information System (CCRIS), 2018).
Activity calls are given as the source filed them. The rule behind the calls is not given here.

Test system: CCRIS mutagenicity, Ames/micronucleus/aberration tests
Experiment: CCRIS mutagenicity studies
[1] = Test System: AMES SALMONELLA TYPHIMURIUM, Strain/Indicator: TA98, Metabolic Activation: NONE, Method: STANDARD PLATE
[2] = Test System: AMES SALMONELLA TYPHIMURIUM, Strain/Indicator: TA98, Metabolic Activation: RAT, LIVER, S-9, AROCLOR 1254, Method: STANDARD PLATE
[3] = Test System: AMES SALMONELLA TYPHIMURIUM, Strain/Indicator: TA100, Metabolic Activation: NONE, Method: STANDARD PLATE
[4] = Test System: AMES SALMONELLA TYPHIMURIUM, Strain/Indicator: TA100, Metabolic Activation: RAT, LIVER, S-9, AROCLOR 1254, Method: STANDARD PLATE
[5] = Test System: AMES SALMONELLA TYPHIMURIUM, Strain/Indicator: TA1535, Metabolic Activation: NONE, Method: STANDARD PLATE
[6] = Test System: AMES SALMONELLA TYPHIMURIUM, Strain/Indicator: TA1535, Metabolic Activation: RAT, LIVER, S-9, AROCLOR 1254, Method: STANDARD PLATE
[7] = Test System: AMES SALMONELLA TYPHIMURIUM, Strain/Indicator: TA1538, Metabolic Activation: NONE, Method: STANDARD PLATE
[8] = Test System: AMES SALMONELLA TYPHIMURIUM, Strain/Indicator: TA1538, Metabolic Activation: RAT, LIVER, S-9, AROCLOR 1254, Method: STANDARD PLATE
[9] = Test System: AMES SALMONELLA TYPHIMURIUM, Strain/Indicator: TA102, Metabolic Activation: NONE, Method: STANDARD PLATE

SMILES: CC(C)C[C@H](NC(=O)COc1cc(Cl)c(Cl)cc1Cl)C(=O)O
- mutagenic call (Test System: AMES SALMONELLA TYPHIMURIUM, Strain/Indicator: TA97, Metabolic Activation: NONE, Method: STANDARD PLATE): inactive; negative
- mutagenic call (Test System: AMES SALMONELLA TYPHIMURIUM, Strain/Indicator: TA97, Metabolic Activation: RAT, LIVER, S-9, AROCLOR 1254, Method: STANDARD PLATE): inactive; negative
- mutagenic call [1]: inactive; negative
- mutagenic call [2]: inactive; negative
- mutagenic call [3]: inactive; negative
- mutagenic call [4]: inactive; negative
- mutagenic call [5]: inactive; negative
- mutagenic call [6]: inactive; negative
- mutagenic call [7]: inactive; negative
- mutagenic call [8]: inactive; negative

SMILES: Cn1c([N+](=O)[O-])cnc1-c1nnc(N)s1
- mutagenic call (End Point: IN VITRO CHROMOSOMAL ABERRATIONS, Test System: HUMAN PERIPHERAL LYMPHOCYTES, Species: HUMAN, Strain/Sex: MALE, FEMALE, Metabolic Activation: NONE): active; positive (structural changes)
- mutagenic call (End Point: IN VITRO CHROMOSOMAL ABERRATIONS, Test System: HUMAN PERIPHERAL LYMPHOCYTES, Species: HUMAN, Strain/Sex: MALE, FEMALE, Metabolic Activation: RAT, LIVER, S-9, AROCLOR 1254 (5%)): active; positive (structural changes)
- mutagenic call (End Point: IN VITRO CHROMOSOMAL ABERRATIONS, Test System: HUMAN PERIPHERAL LYMPHOCYTES, Species: HUMAN, Strain/Sex: MALE, FEMALE, Metabolic Activation: RAT, LIVER, S-9, AROCLOR 1254 (10%)): active; positive (structural changes)
- mutagenic call (End Point: IN VITRO MICRONUCLEUS, Test System: L5178Y MOUSE LYMPHOMA (TK+/-), Metabolic Activation: NONE): active; positive (increase in micronucleated cells)
- mutagenic call (End Point: IN VITRO MICRONUCLEUS, Test System: L5178Y MOUSE LYMPHOMA (TK+/-), Metabolic Activation: RAT, LIVER, S-9, AROCLOR 1254): active; positive (increase in micronucleated cells)
- mutagenic call (End Point: IN VIVO MICRONUCLEUS, Test System: BONE MARROW POLYCHROMATIC ERYTHROCYTES, Species: RAT, Strain/Sex: SPRAGUE-DAWLEY/MALE, FEMALE): active; positive
- mutagenic call (End Point: IN VIVO MICRONUCLEUS, Test System: BONE MARROW POLYCHROMATIC ERYTHROCYTES, Species: RAT, Strain/Sex: SPRAGUE-DAWLEY/MALE, FEMALE, Route: ORAL): active; positive
- mutagenic call (Test System: AMES SALMONELLA TYPHIMURIUM, Strain/Indicator: TA98 (DNP-6), Metabolic Activation: NONE, Method: DESICCATOR): active; positive
- mutagenic call (Test System: AMES SALMONELLA TYPHIMURIUM, Strain/Indicator: TA98 (DNP-6), Metabolic Activation: NONE, Method: STANDARD PLATE): active; positive
- mutagenic call (Test System: AMES SALMONELLA TYPHIMURIUM, Strain/Indicator: TA98 (DNP-6), Metabolic Activation: RAT LIVER S-9, AROCLOR 1254, 10% (W/V), Method: DESICCATOR): active; positive
- mutagenic call (Test System: AMES SALMONELLA TYPHIMURIUM, Strain/Indicator: TA98 (DNP-6), Metabolic Activation: RAT LIVER S-9, AROCLOR 1254, 10% (W/V), Method: STANDARD PLATE): active; positive
- mutagenic call (Test System: AMES SALMONELLA TYPHIMURIUM, Strain/Indicator: TA98 (NR), Metabolic Activation: NONE, Method: DESICCATOR): inactive; negative
- mutagenic call (Test System: AMES SALMONELLA TYPHIMURIUM, Strain/Indicator: TA98 (NR), Metabolic Activation: NONE, Method: STANDARD PLATE): inactive; negative
- mutagenic call (Test System: AMES SALMONELLA TYPHIMURIUM, Strain/Indicator: TA98 (NR), Metabolic Activation: RAT LIVER S-9, AROCLOR 1254, 10% (W/V), Method: DESICCATOR): inactive; negative
- mutagenic call (Test System: AMES SALMONELLA TYPHIMURIUM, Strain/Indicator: TA98 (NR), Metabolic Activation: RAT LIVER S-9, AROCLOR 1254, 10% (W/V), Method: STANDARD PLATE): inactive; negative
- mutagenic call (Test System: AMES SALMONELLA TYPHIMURIUM, Strain/Indicator: TA98, Metabolic Activation: NONE, Method: DESICCATOR): active; positive
- mutagenic call [1]: active; positive
- mutagenic call (Test System: AMES SALMONELLA TYPHIMURIUM, Strain/Indicator: TA98, Metabolic Activation: RAT LIVER S-9, AROCLOR 1254, 10% (W/V), Method: DESICCATOR): active; positive
- mutagenic call (Test System: AMES SALMONELLA TYPHIMURIUM, Strain/Indicator: TA98, Metabolic Activation: RAT LIVER S-9, AROCLOR 1254, 10% (W/V), Method: STANDARD PLATE): active; positive
- mutagenic call [2]: active; positive
- mutagenic call [9]: active; positive
- mutagenic call (Test System: AMES SALMONELLA TYPHIMURIUM, Strain/Indicator: TA102, Metabolic Activation: RAT, LIVER, S-9, AROCLOR 1254, Method: STANDARD PLATE): active; positive

SMILES: CC(C)Cc1ccc(C(C)C(=O)O)cc1 (configuration not stated)
- mutagenic call (Test System: AMES SALMONELLA TYPHIMURIUM, Strain/Indicator: TA97A, Metabolic Activation: NONE, Method: STANDARD PLATE): inactive; negative
- mutagenic call (Test System: AMES SALMONELLA TYPHIMURIUM, Strain/Indicator: TA97A, Metabolic Activation: RAT, LIVER, S-9, PHENOBARBITAL, Method: STANDARD PLATE): inactive; negative
- mutagenic call (Test System: AMES SALMONELLA TYPHIMURIUM, Strain/Indicator: TA98, Metabolic Activation: HAMSTER, LIVER, S-9, AROCLOR 1254, Method: STANDARD PLATE): inactive; negative
- mutagenic call (Test System: AMES SALMONELLA TYPHIMURIUM, Strain/Indicator: TA98, Metabolic Activation: MOUSE, LIVER, S-9, AROCLOR 1254, Method: STANDARD PLATE): inactive; negative
- mutagenic call [1]: inactive; negative
- mutagenic call [2]: inactive; negative
- mutagenic call (Test System: AMES SALMONELLA TYPHIMURIUM, Strain/Indicator: TA100, Metabolic Activation: HAMSTER, LIVER, S-9, AROCLOR 1254, Method: STANDARD PLATE): inactive; negative
- mutagenic call (Test System: AMES SALMONELLA TYPHIMURIUM, Strain/Indicator: TA100, Metabolic Activation: MOUSE, LIVER, S-9, AROCLOR 1254, Method: STANDARD PLATE): inactive; negative
- mutagenic call [3]: inactive; negative
- mutagenic call [4]: inactive; negative
- mutagenic call (Test System: AMES SALMONELLA TYPHIMURIUM, Strain/Indicator: TA100, Metabolic Activation: RAT, LIVER, S-9, PHENOBARBITAL, Method: STANDARD PLATE): inactive; negative
- mutagenic call [9]: inactive; negative
- mutagenic call (Test System: AMES SALMONELLA TYPHIMURIUM, Strain/Indicator: TA102, Metabolic Activation: RAT, LIVER, S-9, PHENOBARBITAL, Method: STANDARD PLATE): inactive; negative
- mutagenic call (Test System: AMES SALMONELLA TYPHIMURIUM, Strain/Indicator: TA1535, Metabolic Activation: HAMSTER, LIVER, S-9, AROCLOR 1254, Method: STANDARD PLATE): inactive; negative
- mutagenic call (Test System: AMES SALMONELLA TYPHIMURIUM, Strain/Indicator: TA1535, Metabolic Activation: MOUSE, LIVER, S-9, AROCLOR 1254, Method: STANDARD PLATE): inactive; negative
- mutagenic call [5]: inactive; negative
- mutagenic call [6]: inactive; negative
- mutagenic call (Test System: AMES SALMONELLA TYPHIMURIUM, Strain/Indicator: TA1537, Metabolic Activation: HAMSTER, LIVER, S-9, AROCLOR 1254, Method: STANDARD PLATE): inactive; negative
- mutagenic call (Test System: AMES SALMONELLA TYPHIMURIUM, Strain/Indicator: TA1537, Metabolic Activation: MOUSE, LIVER, S-9, AROCLOR 1254, Method: STANDARD PLATE): inactive; negative
- mutagenic call (Test System: AMES SALMONELLA TYPHIMURIUM, Strain/Indicator: TA1537, Metabolic Activation: NONE, Method: STANDARD PLATE): inactive; negative
- mutagenic call (Test System: AMES SALMONELLA TYPHIMURIUM, Strain/Indicator: TA1537, Metabolic Activation: RAT, LIVER, S-9, AROCLOR 1254, Method: STANDARD PLATE): inactive; negative
- mutagenic call (Test System: AMES SALMONELLA TYPHIMURIUM, Strain/Indicator: TA1538, Metabolic Activation: HAMSTER, LIVER, S-9, AROCLOR 1254, Method: STANDARD PLATE): inactive; negative
- mutagenic call (Test System: AMES SALMONELLA TYPHIMURIUM, Strain/Indicator: TA1538, Metabolic Activation: MOUSE, LIVER, S-9, AROCLOR 1254, Method: STANDARD PLATE): inactive; negative
- mutagenic call [7]: inactive; negative
- mutagenic call [8]: inactive; negative
